Values of other authors as cited in patent publication US20090247521A1, “SOLUBLE EPOXIDE HYDROLASE INHIBITORS FOR THE TREATMENT OF ENDOTHELIAL DYSFUNCTION” (Arete Therapeutics, Inc., priority 2007, published 2009).

Test system: thoracic aortic rings
Settings: aortic rings from DOCA-salt hypertensive rats that received the s-EH inhibitor, compared with vehicle and normotensive controls

CCCCCCCCCCCCNC(=O)NC12CC3CC(CC(C3)C1)C2 [ADU, adamantyl dodecyl urea]
acetylcholine-induced endothelium-dependent vasorelaxation: augmented acetylcholine-induced endothelium-dependent vasorelaxation, similar to that of the normotensive control animals
